Assay results reported in PMC9030254, “Target Hopping from Protein Kinases to PXR: Identification of Small-Molecule Protein Kinase Inhibitors as Selective Modulators of Pregnane X Receptor from TüKIC Library” (Cells, 2022).

How the values were obtained:
Assay in all cases: Kinase profiling
Format in all cases: biochemical
ULK2 = molecular target: T1, ULK2 (Homo sapiens, UniProt Q8IYT8)
T1 construct: purchased ProQinase (Freiburg, Germany)
T1 sequence (Q8IYT8 1-1036): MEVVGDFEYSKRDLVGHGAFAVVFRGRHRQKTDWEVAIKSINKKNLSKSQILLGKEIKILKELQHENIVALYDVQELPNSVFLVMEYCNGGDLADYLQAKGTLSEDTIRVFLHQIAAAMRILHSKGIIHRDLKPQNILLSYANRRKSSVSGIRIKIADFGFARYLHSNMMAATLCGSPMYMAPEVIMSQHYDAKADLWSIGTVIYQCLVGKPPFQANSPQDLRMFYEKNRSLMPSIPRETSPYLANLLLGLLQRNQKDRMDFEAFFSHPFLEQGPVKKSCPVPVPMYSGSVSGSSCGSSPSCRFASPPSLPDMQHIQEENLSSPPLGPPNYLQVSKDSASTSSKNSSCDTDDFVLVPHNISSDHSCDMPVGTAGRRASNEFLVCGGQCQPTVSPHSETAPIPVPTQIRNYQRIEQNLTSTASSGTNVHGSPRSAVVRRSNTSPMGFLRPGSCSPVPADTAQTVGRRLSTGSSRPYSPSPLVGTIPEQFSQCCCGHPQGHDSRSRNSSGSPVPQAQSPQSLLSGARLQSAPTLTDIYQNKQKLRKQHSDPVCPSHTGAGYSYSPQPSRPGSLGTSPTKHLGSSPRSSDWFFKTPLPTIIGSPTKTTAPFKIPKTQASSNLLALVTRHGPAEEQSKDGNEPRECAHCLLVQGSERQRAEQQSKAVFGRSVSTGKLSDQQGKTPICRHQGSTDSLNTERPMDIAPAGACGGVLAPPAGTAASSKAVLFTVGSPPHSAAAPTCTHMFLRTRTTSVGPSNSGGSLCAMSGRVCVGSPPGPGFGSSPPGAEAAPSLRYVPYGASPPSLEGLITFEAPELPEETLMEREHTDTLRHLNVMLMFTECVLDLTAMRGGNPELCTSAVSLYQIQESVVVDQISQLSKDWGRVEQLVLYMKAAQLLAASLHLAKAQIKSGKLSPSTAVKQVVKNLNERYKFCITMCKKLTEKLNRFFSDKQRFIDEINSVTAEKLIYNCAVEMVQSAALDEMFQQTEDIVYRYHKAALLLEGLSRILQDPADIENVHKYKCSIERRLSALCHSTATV
Protocol: (§1) The analysis was performed by ProQinase (Freiburg, Germany).

NLK = molecular target: T2, NLK (Homo sapiens, UniProt Q9UBE8)
T2 construct: purchased ProQinase (Freiburg, Germany)
T2 sequence (Q9UBE8 1-527): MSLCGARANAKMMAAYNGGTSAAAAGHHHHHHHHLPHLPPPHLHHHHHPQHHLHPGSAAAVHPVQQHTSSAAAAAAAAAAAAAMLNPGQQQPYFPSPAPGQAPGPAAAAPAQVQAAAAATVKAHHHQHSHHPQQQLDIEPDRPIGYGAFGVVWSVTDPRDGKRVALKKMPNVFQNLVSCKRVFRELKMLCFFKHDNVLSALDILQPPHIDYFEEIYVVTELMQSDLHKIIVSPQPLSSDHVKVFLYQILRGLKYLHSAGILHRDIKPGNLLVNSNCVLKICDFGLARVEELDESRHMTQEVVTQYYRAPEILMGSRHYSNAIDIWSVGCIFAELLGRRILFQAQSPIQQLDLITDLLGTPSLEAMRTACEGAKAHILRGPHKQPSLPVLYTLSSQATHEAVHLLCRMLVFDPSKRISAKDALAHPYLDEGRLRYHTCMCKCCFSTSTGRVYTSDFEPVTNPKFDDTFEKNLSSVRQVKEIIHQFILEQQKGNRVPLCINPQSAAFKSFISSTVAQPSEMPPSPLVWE
Protocol: as §1

PIM3 = molecular target: T3, PIM3 (Homo sapiens, UniProt Q86V86)
T3 construct: purchased ProQinase (Freiburg, Germany)
Protocol: as §1

FGFR2 = molecular target: T4, FGFR2 (Homo sapiens, UniProt P21802)
T4 construct: purchased ProQinase (Freiburg, Germany)
T4 sequence (P21802 22-821): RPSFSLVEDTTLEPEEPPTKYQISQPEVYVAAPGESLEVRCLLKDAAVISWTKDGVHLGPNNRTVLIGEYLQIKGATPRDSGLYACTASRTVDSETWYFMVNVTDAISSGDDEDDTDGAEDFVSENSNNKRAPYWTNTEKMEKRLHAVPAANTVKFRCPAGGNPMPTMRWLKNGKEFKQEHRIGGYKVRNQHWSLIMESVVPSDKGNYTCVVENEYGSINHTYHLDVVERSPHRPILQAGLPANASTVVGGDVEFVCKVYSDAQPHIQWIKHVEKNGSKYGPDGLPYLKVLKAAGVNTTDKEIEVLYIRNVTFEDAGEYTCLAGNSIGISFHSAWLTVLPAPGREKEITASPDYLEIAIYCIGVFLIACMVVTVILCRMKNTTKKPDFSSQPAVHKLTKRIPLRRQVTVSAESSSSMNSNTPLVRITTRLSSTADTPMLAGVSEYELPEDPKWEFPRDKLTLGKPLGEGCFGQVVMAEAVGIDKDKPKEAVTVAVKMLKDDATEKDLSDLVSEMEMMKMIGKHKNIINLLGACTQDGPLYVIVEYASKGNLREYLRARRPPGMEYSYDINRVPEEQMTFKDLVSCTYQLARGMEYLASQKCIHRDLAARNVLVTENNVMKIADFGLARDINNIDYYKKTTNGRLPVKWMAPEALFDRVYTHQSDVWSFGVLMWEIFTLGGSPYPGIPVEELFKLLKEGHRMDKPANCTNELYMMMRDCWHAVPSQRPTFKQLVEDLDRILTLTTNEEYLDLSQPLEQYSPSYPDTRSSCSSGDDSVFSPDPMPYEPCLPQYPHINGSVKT
Protocol: as §1

MAPKAPK2 = molecular target: T5, MAPKAPK2 (Homo sapiens, UniProt P49137)
T5 construct: purchased ProQinase (Freiburg, Germany)
Protocol: as §1

HCK = molecular target: T6, HCK (Homo sapiens, UniProt P08631)
T6 construct: purchased ProQinase (Freiburg, Germany)
T6 sequence (P08631 whole entry): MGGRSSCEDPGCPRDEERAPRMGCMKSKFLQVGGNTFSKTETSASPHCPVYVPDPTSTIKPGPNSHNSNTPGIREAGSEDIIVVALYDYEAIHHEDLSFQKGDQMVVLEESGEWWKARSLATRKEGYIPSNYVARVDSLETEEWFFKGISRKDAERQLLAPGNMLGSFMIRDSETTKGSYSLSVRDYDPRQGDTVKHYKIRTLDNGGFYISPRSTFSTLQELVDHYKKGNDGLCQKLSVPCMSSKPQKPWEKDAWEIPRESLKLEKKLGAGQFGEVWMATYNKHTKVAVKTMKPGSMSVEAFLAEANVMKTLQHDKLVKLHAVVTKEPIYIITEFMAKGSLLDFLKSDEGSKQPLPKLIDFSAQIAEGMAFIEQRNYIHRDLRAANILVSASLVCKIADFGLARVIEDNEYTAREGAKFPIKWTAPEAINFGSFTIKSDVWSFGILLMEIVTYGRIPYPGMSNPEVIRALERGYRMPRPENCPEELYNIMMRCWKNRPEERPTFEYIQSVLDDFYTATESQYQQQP
Protocol: as §1

DAPK2 = molecular target: T7, DAPK2 (Homo sapiens, UniProt Q9UIK4)
T7 construct: purchased ProQinase (Freiburg, Germany)
Protocol: as §1

MEK2 = molecular target: T8, MEK2 (Homo sapiens, UniProt P36507)
T8 construct: purchased ProQinase (Freiburg, Germany)
T8 sequence (P36507 whole entry): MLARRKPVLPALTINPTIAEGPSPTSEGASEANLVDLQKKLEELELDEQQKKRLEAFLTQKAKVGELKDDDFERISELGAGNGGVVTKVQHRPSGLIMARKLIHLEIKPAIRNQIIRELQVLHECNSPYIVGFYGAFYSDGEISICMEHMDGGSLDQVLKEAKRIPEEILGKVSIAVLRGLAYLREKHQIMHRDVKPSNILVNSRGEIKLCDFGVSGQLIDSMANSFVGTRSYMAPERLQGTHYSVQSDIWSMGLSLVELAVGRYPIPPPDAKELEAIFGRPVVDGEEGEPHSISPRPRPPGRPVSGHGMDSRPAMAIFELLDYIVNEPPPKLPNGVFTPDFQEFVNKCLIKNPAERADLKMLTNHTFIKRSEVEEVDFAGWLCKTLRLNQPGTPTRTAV
Protocol: as §1

LRRK2 = molecular target: T9, LRRK2 (Homo sapiens, UniProt Q5S007)
T9 construct: purchased ProQinase (Freiburg, Germany)
Protocol: as §1

STK23 = molecular target: T10, STK23 (Homo sapiens, UniProt Q9UPE1)
T10 construct: purchased ProQinase (Freiburg, Germany)
T10 sequence (Q9UPE1 whole entry): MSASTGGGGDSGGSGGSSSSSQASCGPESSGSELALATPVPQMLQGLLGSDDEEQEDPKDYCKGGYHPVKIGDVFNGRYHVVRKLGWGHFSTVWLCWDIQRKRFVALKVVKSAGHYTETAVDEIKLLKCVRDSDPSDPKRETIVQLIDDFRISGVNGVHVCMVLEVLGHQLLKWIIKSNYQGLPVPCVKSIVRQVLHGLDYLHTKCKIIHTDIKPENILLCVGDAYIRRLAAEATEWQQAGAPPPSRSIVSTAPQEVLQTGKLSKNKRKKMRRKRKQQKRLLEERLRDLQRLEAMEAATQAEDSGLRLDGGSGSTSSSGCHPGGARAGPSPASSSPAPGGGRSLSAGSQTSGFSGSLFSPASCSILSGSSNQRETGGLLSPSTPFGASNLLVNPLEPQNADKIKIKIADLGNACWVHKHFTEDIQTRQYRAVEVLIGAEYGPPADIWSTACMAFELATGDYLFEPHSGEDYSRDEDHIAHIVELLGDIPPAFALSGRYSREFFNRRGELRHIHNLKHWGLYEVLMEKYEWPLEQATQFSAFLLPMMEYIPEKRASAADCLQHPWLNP
Protocol: as §1

WNK3 = molecular target: T11, WNK3 (Homo sapiens, UniProt Q9BYP7)
T11 construct: purchased ProQinase (Freiburg, Germany)
T11 sequence (Q9BYP7 whole entry): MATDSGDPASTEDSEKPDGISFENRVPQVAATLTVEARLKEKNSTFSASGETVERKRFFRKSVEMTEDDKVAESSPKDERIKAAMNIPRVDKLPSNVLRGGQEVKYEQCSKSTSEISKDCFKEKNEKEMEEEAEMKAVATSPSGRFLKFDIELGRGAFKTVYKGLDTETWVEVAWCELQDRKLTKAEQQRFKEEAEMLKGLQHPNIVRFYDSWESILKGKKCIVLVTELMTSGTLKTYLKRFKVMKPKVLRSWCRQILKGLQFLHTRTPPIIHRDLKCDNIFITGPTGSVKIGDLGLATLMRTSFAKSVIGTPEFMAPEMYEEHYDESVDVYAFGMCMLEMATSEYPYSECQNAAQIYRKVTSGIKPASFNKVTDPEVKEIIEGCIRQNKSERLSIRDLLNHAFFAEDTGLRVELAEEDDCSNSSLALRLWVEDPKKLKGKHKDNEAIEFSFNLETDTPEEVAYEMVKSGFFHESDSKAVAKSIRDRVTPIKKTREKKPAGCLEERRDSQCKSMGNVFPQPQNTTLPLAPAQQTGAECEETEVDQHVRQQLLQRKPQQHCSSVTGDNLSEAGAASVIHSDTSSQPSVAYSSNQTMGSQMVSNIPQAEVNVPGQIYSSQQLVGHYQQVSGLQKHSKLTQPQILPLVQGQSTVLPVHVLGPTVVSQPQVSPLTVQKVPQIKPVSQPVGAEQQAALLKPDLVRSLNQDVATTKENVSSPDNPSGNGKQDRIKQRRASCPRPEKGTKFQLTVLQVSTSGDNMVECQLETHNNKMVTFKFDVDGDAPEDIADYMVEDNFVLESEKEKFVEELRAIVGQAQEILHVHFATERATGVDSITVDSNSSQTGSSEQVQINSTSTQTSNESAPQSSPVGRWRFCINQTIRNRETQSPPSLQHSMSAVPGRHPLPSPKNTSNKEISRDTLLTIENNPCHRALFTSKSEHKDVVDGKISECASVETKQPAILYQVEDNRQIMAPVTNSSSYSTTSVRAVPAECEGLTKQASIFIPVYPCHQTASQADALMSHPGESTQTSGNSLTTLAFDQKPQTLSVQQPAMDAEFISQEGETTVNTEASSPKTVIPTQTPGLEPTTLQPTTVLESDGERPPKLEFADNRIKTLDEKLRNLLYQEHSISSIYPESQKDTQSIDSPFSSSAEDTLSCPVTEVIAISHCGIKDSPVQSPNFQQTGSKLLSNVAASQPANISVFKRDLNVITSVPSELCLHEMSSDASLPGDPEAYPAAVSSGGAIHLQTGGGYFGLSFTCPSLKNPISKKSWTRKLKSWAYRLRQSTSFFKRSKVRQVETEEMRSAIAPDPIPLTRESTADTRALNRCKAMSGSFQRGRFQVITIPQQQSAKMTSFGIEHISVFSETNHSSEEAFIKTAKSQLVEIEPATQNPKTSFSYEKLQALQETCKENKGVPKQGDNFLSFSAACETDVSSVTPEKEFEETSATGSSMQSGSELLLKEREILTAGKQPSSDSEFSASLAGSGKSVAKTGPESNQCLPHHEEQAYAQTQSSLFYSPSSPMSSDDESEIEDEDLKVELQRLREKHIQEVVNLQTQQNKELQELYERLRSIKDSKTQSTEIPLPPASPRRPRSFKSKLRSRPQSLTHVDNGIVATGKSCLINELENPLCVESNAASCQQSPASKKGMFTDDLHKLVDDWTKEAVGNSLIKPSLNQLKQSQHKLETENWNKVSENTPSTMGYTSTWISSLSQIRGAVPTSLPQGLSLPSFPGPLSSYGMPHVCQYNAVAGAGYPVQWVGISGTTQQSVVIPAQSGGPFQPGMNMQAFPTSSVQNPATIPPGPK
Protocol: as §1

GSK3beta = molecular target: T12, GSK3beta (Homo sapiens, UniProt P49841)
T12 construct: purchased ProQinase (Freiburg, Germany)
T12 sequence (P49841 whole entry): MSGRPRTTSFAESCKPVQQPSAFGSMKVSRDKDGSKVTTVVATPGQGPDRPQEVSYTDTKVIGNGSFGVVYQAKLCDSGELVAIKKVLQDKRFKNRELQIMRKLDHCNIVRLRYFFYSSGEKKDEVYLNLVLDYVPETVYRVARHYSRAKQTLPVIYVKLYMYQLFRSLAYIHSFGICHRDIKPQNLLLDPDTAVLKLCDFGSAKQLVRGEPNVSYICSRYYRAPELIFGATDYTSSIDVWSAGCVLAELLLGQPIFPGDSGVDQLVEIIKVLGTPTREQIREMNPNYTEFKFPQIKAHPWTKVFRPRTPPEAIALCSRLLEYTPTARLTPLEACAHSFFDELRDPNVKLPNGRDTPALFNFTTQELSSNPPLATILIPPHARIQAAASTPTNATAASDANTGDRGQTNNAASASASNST
Protocol: as §1

RPS6KA4 = molecular target: T13, RPS6KA4 (Homo sapiens, UniProt O75676)
T13 construct: purchased ProQinase (Freiburg, Germany)
Protocol: as §1

AKT1 = molecular target: T14, AKT1 (Homo sapiens, UniProt P31749)
T14 construct: purchased ProQinase (Freiburg, Germany)
T14 sequence (P31749 whole entry): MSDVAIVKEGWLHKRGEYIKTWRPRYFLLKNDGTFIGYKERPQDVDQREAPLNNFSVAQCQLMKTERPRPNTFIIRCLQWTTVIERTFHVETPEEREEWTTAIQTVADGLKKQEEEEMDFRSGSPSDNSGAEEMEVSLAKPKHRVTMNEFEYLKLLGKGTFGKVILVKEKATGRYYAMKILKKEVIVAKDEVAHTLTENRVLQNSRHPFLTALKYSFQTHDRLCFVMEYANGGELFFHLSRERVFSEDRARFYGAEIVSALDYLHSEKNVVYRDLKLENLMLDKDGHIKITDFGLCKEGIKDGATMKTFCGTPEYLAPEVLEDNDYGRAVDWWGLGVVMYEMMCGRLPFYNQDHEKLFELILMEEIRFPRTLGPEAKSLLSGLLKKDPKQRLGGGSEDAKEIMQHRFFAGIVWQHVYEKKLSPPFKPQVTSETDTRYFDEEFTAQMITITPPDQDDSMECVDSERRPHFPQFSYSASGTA
Protocol: as §1

CDK12/CycK = molecular target: T15, CDK12/CycK (Homo sapiens, UniProt Q9NYV4)
T15 construct: purchased ProQinase (Freiburg, Germany)
Protocol: as §1

SYK = molecular target: T16, SYK (Homo sapiens, UniProt P43405)
T16 construct: purchased ProQinase (Freiburg, Germany)
Protocol: as §1

SMILES | Residual activity (ULK2; 1.0E-05 M) | Residual activity (ULK2; 1.0E-06 M) | Residual activity (NLK; 1.0E-05 M) | Residual activity (NLK; 1.0E-06 M) | Residual activity (PIM3; 1.0E-05 M) | Residual activity (PIM3; 1.0E-06 M) | Residual activity (FGFR2; 1.0E-05 M) | Residual activity (FGFR2; 1.0E-06 M) | Residual activity (MAPKAPK2; 1.0E-05 M) | Residual activity (MAPKAPK2; 1.0E-06 M) | Residual activity (HCK; 1.0E-05 M) | Residual activity (HCK; 1.0E-06 M) | Residual activity (DAPK2; 1.0E-05 M) | Residual activity (DAPK2; 1.0E-06 M) | Residual activity (MEK2; 1.0E-05 M) | Residual activity (MEK2; 1.0E-06 M) | Residual activity (LRRK2; 1.0E-05 M) | Residual activity (LRRK2; 1.0E-06 M) | Residual activity (STK23; 1.0E-05 M) | Residual activity (STK23; 1.0E-06 M) | further results
O=C(Cc1ccccc1)Nc1ccc(F)c(Nc2ccc3c(c2)CCCCC3=O)c1 [Compound 100] | 103 % of control | 113 % of control | 96 % of control | 96 % of control | 89 % of control | 90 % of control | 51 % of control | 90 % of control | 77 % of control | 121 % of control | 95 % of control | 107 % of control | 124 % of control | 113 % of control | 88 % of control | 102 % of control | 92 % of control | 89 % of control | 79 % of control | 89 % of control | Residual activity (WNK3; 1.0E-05 M): 109 % of control; Residual activity (WNK3; 1.0E-06 M): 107 % of control; Residual activity (GSK3beta; 1.0E-05 M): 88 % of control; Residual activity (GSK3beta; 1.0E-06 M): 88 % of control; Residual activity (RPS6KA4; 1.0E-05 M): 93 % of control; Residual activity (RPS6KA4; 1.0E-06 M): 93 % of control; Residual activity (AKT1; 1.0E-05 M): 88 % of control; Residual activity (AKT1; 1.0E-06 M): 99 % of control; Residual activity (CDK12/CycK; 1.0E-05 M): 100 % of control; Residual activity (CDK12/CycK; 1.0E-06 M): 104 % of control; Residual activity (SYK; 1.0E-05 M): 89 % of control; Residual activity (SYK; 1.0E-06 M): 105 % of control
O=C(Nc1ccc(F)c(Nc2ccc3c(c2)CCCCC3=O)c1)c1cccc(F)c1 [Compound 109] | 113 % of control | 99 % of control | 91 % of control | 97 % of control | 102 % of control | 89 % of control | 74 % of control | 97 % of control | 78 % of control | 101 % of control | 76 % of control | 99 % of control | 133 % of control | 110 % of control | 89 % of control | 100 % of control | 90 % of control | 94 % of control | 76 % of control | 78 % of control | Residual activity (WNK3; 1.0E-05 M): 104 % of control; Residual activity (WNK3; 1.0E-06 M): 93 % of control; Residual activity (GSK3beta; 1.0E-05 M): 90 % of control; Residual activity (GSK3beta; 1.0E-06 M): 82 % of control; Residual activity (RPS6KA4; 1.0E-05 M): 95 % of control; Residual activity (RPS6KA4; 1.0E-06 M): 95 % of control; Residual activity (AKT1; 1.0E-05 M): 97 % of control; Residual activity (AKT1; 1.0E-06 M): 101 % of control; Residual activity (CDK12/CycK; 1.0E-05 M): 99 % of control; Residual activity (CDK12/CycK; 1.0E-06 M): 105 % of control; Residual activity (SYK; 1.0E-05 M): 94 % of control; Residual activity (SYK; 1.0E-06 M): 95 % of control
